# From US20240309014A1, “MACROCYCLIC COMPOUNDS AND USES THEREOF” (President and Fellows of Harvard College, priority 2017, published 2024)
# Experiments:
# [1] = system: HSC-2-Luc inoculated into tongue; test: HSC-2 orthotopic transplantation mouse model; format: in vivo, nude mice; conditions: for ILS (%): Compound (1) 0.09 mg/kg
# [2] = system: microtubule dynamics in U2OS-EB3-AG osteosarcoma cell line; test: Cell-based microtubule dynamics assay; conditions: 0.5 nM, around 60 minutes after addition
# Method: A cell-based microtubule (MT) dynamics assay was conducted with the U2OS-EB3-AG osteosarcoma cell line, in which the fusion protein of EB3 (a microtubule plus end binding protein) and Azami-Green (EB3-AG) was stably expressed. U2OS-EB3-AG cells were culture in RPMI-1640 medium containing 10% FBS, and penicillin-streptomycin, at 37° C. in a humidified 5% C02 atmosphere. The MT dynamics in the live cells can be visualized as the movement of the comet-like structure of EB3-AG. U2OS-EB3-AG cells plated on glass-base culture plates (EZVIEW plate, AGC Techno Glass, Japan) were treated with Compound (1) at the indicated concentration and the microtubule dynamics were monitored by time-lapse imaging using fluorescent microscope with 60-fold magnification oil- immersed objective lens (BZ-X710, KEYENCE, Japan). Higher magnification views of the boxed areas were shown in inlets. When treated with Compound (1) at 0.5 nM (IC50 value for antiproliferative activity in U20S-EB3-AG cells), the comet-like structures became hard to observe at around 60 minutes after the addition of the compound.
# [3] = system: COLO-704 subcutaneous xenograft; test: COLO-704 xenograft model as monotherapy (FIG. 12); format: in vivo, nude mice
# Method: A human ovarian cancer cell line COLO-704, which had been cultured in a RPMI-1640 containing 10% FBS, and penicillin-streptomycin, was adjusted to a concentration of 1×10^8 cells/mL with Hanks' Balanced Salt Solution to prepare a cell suspension. The cell suspension was inoculated in a volume of 100 μL into a subcutaneous part of a right flank of nude mice, 5 weeks of ages (CAnN.Cg- Foxnlnu/CrlCrlj, female, Charles River Laboratories Japan Inc.). Nine days after cell inoculation (Day 1), the shortest diameter and the longest diameter of a tumor in each mouse were measured by using an electronic digital caliper (Digimatic™ caliper, Mitutoyo Corporation), so as to calculate the volume of the tumor in accordance with the following calculation formulae: […]
# On the basis of the volumes of tumors obtained on Day 1, the mice were grouped such that averages of the tumor volumes were substantially equal among the groups. The experiment was conducted on groups each consisting of six mice. The test compound was dissolved in DMSO and a solution was stored in the freezer before use. Immediately before the administration, the stock solution was diluted with saline. The test compound in saline was intravenously once-weekly administered at 20 μg/kg, 60 μg/kg, or 180 μg/kg for 2 weeks (on Day 1 and Day 8).
# [4] = system: CD31-positive vessel in FaDu tumor; test: Effect on CD31-positive vessel in the FaDu subcutaneous model (FIG. 13); format: in vivo, nude mice; conditions: single i.v. administration at 20, 60, and 180 μg/kg, five days after
# Method: A human squamous cell carcinoma of the head and neck (SCCHN) cell line FaDu, which had been cultured in an RPMI-1640 medium containing 10% FBS, and penicillin-streptomycin (culture medium), was adjusted to a concentration of 5×10^7 cells/mL with culture medium to prepare a cell suspension. The cell suspension was inoculated in a volume of 100 μL into a subcutaneous part of a right flank of nude mice, 6 weeks of ages (CAnN.Cg-Foxnlnu/CrlCrlj, female, Charles River Laboratories Japan, Inc.). Ten days after cell inoculation, the mice were grouped such that averages of the tumor volumes were substantially equal among the groups. The experiment was conducted on groups each consisting of 6 mice. Each test compound was dissolved in DMSO and a solution was stored in the freezer before use. Immediately before the administration, the stock solution was diluted with saline. […] The number of blood vessels in the whole tumor was quantified by counting the CD31-positive objects using inform 2 software (PerkinElmer Inc.) Area of the tumor region was measured by assessing the hematoxylin-staining area using inform 2 software (PerkinElmer Inc.) The number of blood vessels was normalized by the area of the tumor region. […] The ratios of blood vessel number in the test compound-dosing groups compared to non-treat group were calculated with the below formula: […]
# [5] = system: HCCl806 subcutaneous xenograft; test: Antitumor activity against HCC1806 subcutaneous xenograft as monotherapy; format: in vivo, nude mice; conditions: 0.18 mg/kg i.v., Q7Dx2
# Method: A human breast cancer cell line HCCl806, which had been cultured in an RPMI-1640 medium containing 10% FBS, and penicillin and streptomycin, was adjusted to a concentration of 1×10^8 cells/mL with PBS to prepare a cell suspension, and the suspension was mixed with Matrigel™ (BD Bioscience, #366237) in a ratio of 1:1 to prepare a cell suspension in a concentration of 5×10^7 cell/mL. The cell suspension was inoculated in a volume of 100 μL into a subcutaneous part of a right flank of nude mice, 5 weeks of ages (CAnN.Cg-Foxnlnu/CrlCrlj, female, Charles River Laboratories Japan, Inc.). Twelve days after cell inoculation, the shortest diameter and the longest diameter of a tumor in each mouse were measured by using an electronic digital caliper (Digimatic™ caliper, Mitutoyo Corporation), so as to calculate the volume of the tumor in accordance with the following calculation formulae: […]
# On the basis of the volumes of tumors obtained on the first day of administration, the mice were grouped such that averages of the tumor volumes were substantially equal among the groups. The experiment was conducted on groups each consisting of 6 mice. Test compound was dissolved in saline and intravenously administered at 0.18 mg/kg once a week for 2 weeks (Q7Dx2 schedule).
compound,measurement,setting,value
C=C1C[C@@H]2CC[C@@]34C[C@H]5O[C@H]6[C@@H](O3)[C@H]3O[C@H](CC[C@@H]3O[C@H]6C5O4)CC(=O)O[C@@H]3[C@@H](C)[C@@H]4O[C@@H]5C[C@]6(C[C@@H]7O[C@]8(C[C@H](C)[C@@H]9O[C@H](CN)[C@H](O)C[C@@H]9O8)C[C@H](C)[C@@H]7O6)O[C@@H]5C[C@@H]4O[C@H]3C[C@H]3O[C@@H](CC[C@@H]1O2)C[C@@H](C)C3=C (stereo in doubt) [Compound (1)],bioluminescence signal,"[1]; Compound (1) with cetuximab, after Day 14",clearly reduced the bioluminescence signal in all mice
same,survived mice on Day 100,"[1]; Compound (1)+CTX combination group, n=16",10
same,ILS (%),"[1]; single agent, Q7Dx3: cetuximab 5 mg/kg, cisplatin 5 mg/kg",238%
same,ILS (%),"[1]; with cetuximab 5 mg/kg, Q7Dx3: cisplatin 5 mg/kg",>1150%
same,effect on microtubule dynamics (EB3-AG comet-like structures),[2],suppress the MT dynamics
same,antitumor effect,[3]; 60 μg/kg i.v. Day 1 and Day 8,tumor growth delay
same,antitumor effect,[3]; 180 μg/kg i.v. Day 1 and Day 8,tumor regression
same,xenograft tumors on Day 22,[3]; 180 μg/kg i.v. Day 1 and Day 8,completely eradicated the xenograft tumors in all mice
same,tumor blood vessel number,[4],increased the tumor blood vessel number
same,Tumor Regression (%),[5],90%
